The record followed here is ChEMBL document CHEMBL1148033, “Four new C16 1,2-dioxene-polyketides from the sponge Plakortis aff. simplex” (J Nat Prod, 1993).

A value given as a limit tells only on which side of the number the result lay.

The assay deals with P388. The experiment in a line: Cytotoxicity against mouse P388 cells. Type of assay: functional, cell-based.

On to `CCCC1C=CC(CCC[C@]2(OC)C=C[C@@H](CC(=O)OC)OO2)OO1` (some centres not stated), for which the IC50 is below 0.1 mg/L.

For `CCC/C=C/C=C/CCC[C@]1(OC)C=C[C@@H](CC(=O)OC)OO1`, the IC50 was below 0.1 mg/L.
